Data from patent US10508085B2, “Compounds and methods for IDO and TDO modulation, and indications therefor” (Plexxikon Inc., priority 2016, dated 2019).
Like-named read-outs stand apart in the source and are kept apart here.

How the values were obtained:
[1] = target: T1, Human Indoleamine 2,3-dioxygenase (IDO) (Homo sapiens, UniProt P14902); assay: Human IDO enzymatic assay (kynurenine level); format: biochemical; settings: 6 nM IDO, 10 μM L-Trp; geometric mean; read-out: IDO1 GMean: IC50 (μM) (Biochemical Assay)
T1 construct: His tag (N); made in house; host or cells: E. coli
T1 sequence (P14902 whole entry): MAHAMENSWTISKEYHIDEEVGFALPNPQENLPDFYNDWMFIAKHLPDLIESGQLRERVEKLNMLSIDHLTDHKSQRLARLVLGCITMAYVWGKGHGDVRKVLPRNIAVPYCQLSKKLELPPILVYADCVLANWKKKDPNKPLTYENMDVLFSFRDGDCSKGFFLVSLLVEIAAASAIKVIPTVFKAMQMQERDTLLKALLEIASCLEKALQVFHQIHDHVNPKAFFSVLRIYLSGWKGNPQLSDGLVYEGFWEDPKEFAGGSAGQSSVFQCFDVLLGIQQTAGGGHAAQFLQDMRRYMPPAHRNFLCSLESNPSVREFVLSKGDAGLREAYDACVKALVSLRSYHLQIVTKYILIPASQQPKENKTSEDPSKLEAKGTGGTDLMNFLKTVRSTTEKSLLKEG
Method in brief: (§1)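 N-terminally His-tagged enzymes expressed in E. coli were run in 50 mM sodium phosphate pH 6.5 with 10 mM ascorbate, catalase and Tween 20. IDO: 6 nM enzyme, 10 μM L-Trp, 5 μM methylene blue, 20 min RT. TDO: 1 nM enzyme, 350 μM L-Trp, 0.4 μM methylene blue, 70 min RT.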

[2] = target: T2, Human Tryptophan 2,3-dioxygenase (TDO) (Homo sapiens, UniProt P48775); assay: Human TDO enzymatic assay (kynurenine level); format: biochemical; settings: 1 nM TDO, 350 μM L-Trp; geometric mean; read-out: TDO GMean: IC50 (μM) (Biochemical Assay)
T2 construct: His tag (N); made in house; host or cells: E. coli
T2 sequence (P48775 whole entry): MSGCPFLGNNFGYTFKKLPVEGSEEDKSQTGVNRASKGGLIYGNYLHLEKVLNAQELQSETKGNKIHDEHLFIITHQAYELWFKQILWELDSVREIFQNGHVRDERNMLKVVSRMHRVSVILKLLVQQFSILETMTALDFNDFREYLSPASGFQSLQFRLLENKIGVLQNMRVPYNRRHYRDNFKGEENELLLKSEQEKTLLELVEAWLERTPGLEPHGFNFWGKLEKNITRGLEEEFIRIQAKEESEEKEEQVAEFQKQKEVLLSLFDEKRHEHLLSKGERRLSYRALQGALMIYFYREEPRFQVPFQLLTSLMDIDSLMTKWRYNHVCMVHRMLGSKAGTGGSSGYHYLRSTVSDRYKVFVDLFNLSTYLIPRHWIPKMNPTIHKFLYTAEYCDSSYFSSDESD
Method in brief: as §1

[3] = target: T3, human IDO (IDO1-expressing HEK293 cells) (Homo sapiens, UniProt P14902); assay: Cell based kynurenine assay, IDO1-expressing HEK293 cell clones; settings: IDO1-expressing HEK293 cells, geometric mean, read-out: HEK293 IDO1 Kynurenine GMean IC50 (μM) (Cellular Assay)
T3 construct: expressed in transfected cells
T3 sequence (P14902 whole entry): as the sequence (P14902 whole entry) above
Method in brief: (§2)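 HEK293 stable clones (hIDO1 or hTDO, CMV-driven; G418-selected); 2.5×10^4 cells/well; compound serial dilution, 24 h, 37 °C, 5% CO2; supernatant kynurenine; IC50 by nonlinear fit.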

[4] = target: T4, human TDO (TDO-expressing HEK293 cells) (Homo sapiens, UniProt P48775); assay: Cell based kynurenine assay, TDO-expressing HEK293 cell clones; settings: TDO-expressing HEK293 cells, geometric mean, read-out: HEK293 TDO Kynurenine GMean IC50 (μM) (Cellular Assay)
T4 construct: expressed in transfected cells
T4 sequence (P48775 whole entry): as the sequence (P48775 whole entry) above
Method in brief: as §2

| SMILES | IC50 [1] | IC50 [2] | IC50 ([3]; 24 hours incubation) | IC50 ([4]; 24 hours incubation) | IC50 ([3]; 24 hours) | IC50 ([4]; 24 hours) |
| --- | --- | --- | --- | --- | --- | --- |
| CC(C)(C1CCN(C(=O)NCc2ccccc2)CC1)C(O)c1cc(Cl)cc2cn[nH]c12 (centres unmarked) [Compound P-0386, N-benzyl-4-(1-(5-chloro-1H-indazol-7-yl)-1-hydroxy-2-methylpropan-2-yl)piperidine-1-carboxamide] | 0.0001 to 10 µM | 0.0001 to 10 µM | 0.0001 to 10 µM | 0.0001 to 10 µM | – | – |
| CC(C)(C1CCN(C(=O)NC2CCC2)CC1)C(O)c1cc(Cl)cc2cn[nH]c12 (centres unmarked) [Compound P-0387, 4-(1-(5-chloro-1H-indazol-7-yl)-1-hydroxy-2-methylpropan-2-yl)-N-cyclobutylpiperidine-1-carboxamide] | 0.0001 to 10 µM | 0.0001 to 10 µM | 0.0001 to 10 µM | 0.0001 to 10 µM | – | – |
| COCCNC(=O)N1CCC(C(C)(C)C(O)c2cc(Cl)cc3cn[nH]c23)CC1 (centres unmarked) [Compound P-0388, 4-(1-(5-chloro-1H-indazol-7-yl)-1-hydroxy-2-methylpropan-2-yl)-N-(2-methoxyethyl) piperidine-1-carboxamide] | 0.0001 to 10 µM | 0.0001 to 10 µM | 0.0001 to 10 µM | 0.0001 to 10 µM | – | – |
| CC(C)(C1CCN(C(=O)Nc2ccccn2)CC1)C(O)c1cc(Cl)cc2cn[nH]c12 (centres unmarked) [Compound P-0389, 4-(1-(5-chloro-1H-indazol-7-yl)-1-hydroxy-2-methylpropan-2-yl)-N-(pyridin-2-yl)piperidine-1-carboxamide] | 0.0001 to 10 µM | 0.0001 to 10 µM | 0.0001 to 10 µM | 0.0001 to 10 µM | – | – |
| CC(C)(C1CCN(C(=O)Nc2ccnc(N3CCOCC3)c2)CC1)C(O)c1cc(Cl)cc2cn[nH]c12 (centres unmarked) [Compound P-0390, 4-(1-(5-chloro-1H-indazol-7-yl)-1-hydroxy-2-methylpropan-2-yl)-N-(2-morpholinopyridin-4-yl)piperidine-1-carboxamide] | 0.0001 to 10 µM | 0.0001 to 10 µM | 0.0001 to 10 µM | 0.0001 to 10 µM | – | – |
| CC(C)(C1CCN(C(=O)N2CCOCC2)CC1)C(O)c1cc(Cl)cc2cn[nH]c12 (centres unmarked) [Compound P-0391, (4-(1-(5-chloro-1H-indazol-7-yl)-1-hydroxy-2-methylpropan-2-yl)piperidin-1-yl)(morpholino) methanone] | 0.0001 to 10 µM | 0.0001 to 10 µM | 0.0001 to 10 µM | 0.0001 to 10 µM | – | – |
| Cc1noc(C)c1NC(=O)N1CCC(C(C)(C)C(O)c2cc(Cl)cc3cn[nH]c23)CC1 (centres unmarked) [Compound P-0392, 4-(1-(5-chloro-1H-indazol-7-yl)-1-hydroxy-2-methylpropan-2-yl)-N-(3,5-dimethylisoxazol-4-yl)piperidine-1-carboxamide] | 0.0001 to 10 µM | 0.0001 to 10 µM | 0.0001 to 10 µM | 0.0001 to 10 µM | – | – |
| CC(C)(C1CCN(C(=O)Nc2ccc(Cl)c(C(F)(F)F)c2)CC1)C(O)c1cc(Cl)cc2cn[nH]c12 (centres unmarked) [Compound P-0393, 4-(1-(5-chloro-1H-indazol-7-yl)-1-hydroxy-2-methylpropan-2-yl)-N-(4-chloro-3-(trifluoromethyl)phenyl)piperidine-1-carboxamide] | 0.0001 to 10 µM | 0.0001 to 10 µM | 0.0001 to 10 µM | 0.0001 to 10 µM | – | – |
| Cc1ccc(NC(=O)N2CCC(C(C)(C)C(O)c3cc(Cl)cc4cn[nH]c34)CC2)cc1Cl (centres unmarked) [Compound P-0394, 4-(1-(5-chloro-1H-indazol-7-yl)-1-hydroxy-2-methylpropan-2-yl)-N-(3-chloro-4-methylphenyl) piperidine-1-carboxamide] | 0.0001 to 10 µM | 0.0001 to 10 µM | 0.0001 to 10 µM | 0.0001 to 10 µM | – | – |
| CC(C)(C1CCN(C(=O)Nc2cc(Cl)cc(Cl)c2)CC1)C(O)c1cc(Cl)cc2cn[nH]c12 (centres unmarked) [Compound P-0395, 4-(1-(5-chloro-1H-indazol-7-yl)-1-hydroxy-2-methylpropan-2-yl)-N-(3,5-dichlorophenyl) piperidine-1-carboxamide] | 0.0001 to 10 µM | 0.0001 to 10 µM | 0.0001 to 10 µM | 0.0001 to 10 µM | – | – |
| COc1cc(NC(=O)N2CCC(C(C)(C)C(O)c3cc(Cl)cc4cn[nH]c34)CC2)cc(OC)c1 (centres unmarked) [Compound P-0396, 4-(1-(5-chloro-1H-indazol-7-yl)-1-hydroxy-2-methylpropan-2-yl)-N-(3,5-dimethoxyphenyl) piperidine-1-carboxamide] | 0.0001 to 10 µM | 0.0001 to 10 µM | 0.0001 to 10 µM | 0.0001 to 10 µM | – | – |
| Cc1ccc(NC(=O)N2CCC(C(C)(C)C(O)c3cc(Cl)cc4cn[nH]c34)CC2)cc1 (centres unmarked) [Compound P-0397, 4-(1-(5-chloro-1H-indazol-7-yl)-1-hydroxy-2-methylpropan-2-yl)-N-(p-tolyl) piperidine-1-carboxamide] | 0.0001 to 10 µM | 0.0001 to 10 µM | 0.0001 to 10 µM | 0.0001 to 10 µM | – | – |
| CC(C)(C1CCN(C(=O)Nc2ccc(F)cc2F)CC1)C(O)c1cc(Cl)cc2cn[nH]c12 (centres unmarked) [Compound P-0398, 4-(1-(5-chloro-1H-indazol-7-yl)-1-hydroxy-2-methylpropan-2-yl)-N-(2,4-difluorophenyl) piperidine-1-carboxamide] | 0.0001 to 10 µM | 0.0001 to 10 µM | 0.0001 to 10 µM | 0.0001 to 10 µM | – | – |
| CCNC(=O)N1CCC(C(C)(C)C(O)c2cc(Cl)cc3cn[nH]c23)CC1 (centres unmarked) [Compound P-0399, 4-(1-(5-chloro-1H-indazol-7-yl)-1-hydroxy-2-methylpropan-2-yl)-N-ethylpiperidine-1-carboxamide] | 0.0001 to 10 µM | 0.0001 to 10 µM | 0.0001 to 10 µM | 0.0001 to 10 µM | – | – |
| CC(C)(C1CCN(C(=O)Nc2cccc(C(F)(F)F)c2)CC1)C(O)c1cc(Cl)cc2cn[nH]c12 (centres unmarked) [Compound P-0400, 4-(1-(5-chloro-1H-indazol-7-yl)-1-hydroxy-2-methylpropan-2-yl)-N-(3-(trifluoromethyl)phenyl)piperidine-1-carboxamide] | 0.0001 to 10 µM | 0.0001 to 10 µM | 0.0001 to 10 µM | 0.0001 to 10 µM | – | – |
| CC(C)(C1CCN(C(=O)Nc2ccccc2C(F)(F)F)CC1)C(O)c1cc(Cl)cc2cn[nH]c12 (centres unmarked) [Compound P-0401, 4-(1-(5-chloro-1H-indazol-7-yl)-1-hydroxy-2-methylpropan-2-yl)-N-(2-(trifluoromethyl)phenyl)piperidine-1-carboxamide] | 0.0001 to 10 µM | 0.0001 to 10 µM | 0.0001 to 10 µM | 0.0001 to 10 µM | – | – |
| CN(C)c1ccc(NC(=O)N2CCC(C(C)(C)C(O)c3cc(Cl)cc4cn[nH]c34)CC2)cc1 (centres unmarked) [Compound P-0402, 4-(1-(5-chloro-1H-indazol-7-yl)-1-hydroxy-2-methylpropan-2-yl)-N-(4-(dimethylamino)phenyl)piperidine-1-carboxamide] | 0.0001 to 10 µM | 0.0001 to 10 µM | 0.0001 to 10 µM | 0.0001 to 10 µM | – | – |
| CC(C)(C1CCN(C(=O)Nc2ccc(OC(F)(F)F)cc2)CC1)C(O)c1cc(Cl)cc2cn[nH]c12 (centres unmarked) [Compound P-0403, 4-(1-(5-chloro-1H-indazol-7-yl)-1-hydroxy-2-methylpropan-2-yl)-N-(4-(trifluoromethoxy)phenyl)piperidine-1-carboxamide] | 0.0001 to 10 µM | 0.0001 to 10 µM | 0.0001 to 10 µM | 0.0001 to 10 µM | – | – |
| CC(C)(C1CCN(C(=O)Nc2cc(F)ccc2F)CC1)C(O)c1cc(Cl)cc2cn[nH]c12 (centres unmarked) [Compound P-0404, 4-(1-(5-chloro-1H-indazol-7-yl)-1-hydroxy-2-methylpropan-2-yl)-N-(2,5-difluorophenyl) piperidine-1-carboxamide] | 0.0001 to 10 µM | 0.0001 to 10 µM | 0.0001 to 10 µM | 0.0001 to 10 µM | – | – |
| CCOC(=O)NC(=O)N1CCC(C(C)(C)C(O)c2cc(Cl)cc3cn[nH]c23)CC1 (centres unmarked) [Compound P-0405, ethyl (4-(1-(5-chloro-1H-indazol-7-yl)-1-hydroxy-2-methylpropan-2-yl)piperidine-1-carbonyl)carbamate] | 0.0001 to 10 µM | 0.0001 to 10 µM | 0.0001 to 10 µM | 0.0001 to 10 µM | – | – |
| Cc1ccc(Cl)c(NC(=O)N2CCC(C(C)(C)C(O)c3cc(Cl)cc4cn[nH]c34)CC2)c1 (centres unmarked) [Compound P-0406, 4-(1-(5-chloro-1H-indazol-7-yl)-1-hydroxy-2-methylpropan-2-yl)-N-(2-chloro-5-methylphenyl) piperidine-1-carboxamide] | 0.0001 to 10 µM | 0.0001 to 10 µM | – | – | 0.0001 to 10 µM | 0.0001 to 10 µM |
| OC1(c2cc(Cl)cc3cn[nH]c23)[C@H]2CCC[C@@H]1CCC2 (stereo partly drawn) [Compound P-0407, (1R,5S)-9-(5-chloro-1H-indazol-7-yl)bicyclo[3.3.1] nonan-9-ol] | 0.0001 to 10 µM | 0.0001 to 10 µM | – | – | > 10 µM | 0.0001 to 10 µM |
| O=C(CC1CC1)N1CCC(C(F)(F)C(O)c2c(F)c(Cl)cc3cn[nH]c23)CC1 (centres unmarked) [Compound P-0408, 1-(4-(2-(5-chloro-6-fluoro-1H-indazol-7-yl)-1,1-difluoro-2-hydroxyethyl)piperidin-1-yl)-2-cyclopropylethan-1-one] | 0.0001 to 10 µM | 0.0001 to 10 µM | – | – | 0.0001 to 10 µM | 0.0001 to 10 µM |
